Experimental data as given in ChEMBL document CHEMBL1148862, “Evaluation of the anti-hepatitis C virus effect of novel potent, selective, and orally bioavailable JNK and VEGFR kinase inhibitors” (Bioorg Med Chem Lett, 2007).
pEC50, pIC50: −log10 of the molar value. The source made the active and inactive calls. The rule behind the calls is not given here.

Legend:
[1] = Inhibition of HCV NS3/4A protease; design: species or system Hepacivirus hominis
[2] = Drug level in Swiss SPF (CD1) mouse liver at 20 mg/kg, po after 4 hrs; type: ADME, organism-based; design: dose 20 mg/kg, route oral; details: read-out: Drug uptake
[3] = AUC (0 to infinity) in Swiss SPF (CD1) mouse plasma at 20 mg/kg, po; type: ADME, organism-based; design: time infinity, dose 20 mg/kg, route oral
[4] = Drug level in Swiss SPF (CD1) mouse liver at 20 mg/kg, po after 8 hrs; type: ADME, organism-based; design: dose 20 mg/kg, route oral; details: read-out: Drug uptake
[5] = target: T1, TGF-beta receptor type-1 (Homo sapiens, UniProt P36897)
T1 sequence (P36897 whole entry): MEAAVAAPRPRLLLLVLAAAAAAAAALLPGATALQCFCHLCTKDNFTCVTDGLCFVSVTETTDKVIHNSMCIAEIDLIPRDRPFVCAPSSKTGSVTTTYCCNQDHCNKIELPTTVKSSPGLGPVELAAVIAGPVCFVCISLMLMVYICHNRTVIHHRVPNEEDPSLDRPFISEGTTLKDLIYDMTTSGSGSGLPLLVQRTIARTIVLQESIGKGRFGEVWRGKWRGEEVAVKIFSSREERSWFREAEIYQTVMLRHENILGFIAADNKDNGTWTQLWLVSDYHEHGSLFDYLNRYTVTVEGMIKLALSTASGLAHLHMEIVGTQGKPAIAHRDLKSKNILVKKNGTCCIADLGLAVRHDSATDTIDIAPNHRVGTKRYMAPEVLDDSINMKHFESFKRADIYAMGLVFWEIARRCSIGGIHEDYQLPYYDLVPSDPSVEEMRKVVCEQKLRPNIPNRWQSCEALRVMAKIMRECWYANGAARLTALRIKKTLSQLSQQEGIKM

[6] = AUC (0 to 8 hrs) in Swiss SPF (CD1) mouse plasma at 20 mg/kg, po; type: ADME, organism-based; design: time < 8 hr, dose 20 mg/kg, route oral
[7] = Cmax in Swiss SPF (CD1) mouse heart at 20 mg/kg, po; type: ADME, organism-based; design: dose 20 mg/kg, route oral
[8] = test system: Hepatitis C virus; experiment: Antiviral activity against HCV ET replicon with NS3 E1202G, T1280I mutation and NS4B K1846 mutation; type: functional, organism-based; details: Hepacivirus hominis
[9] = AUC (0 to 8 hrs) in Swiss SPF (CD1) mouse liver at 20 mg/kg, po; type: ADME, organism-based; design: time < 8 hr, dose 20 mg/kg, route oral
[10] = Drug level in Swiss SPF (CD1) mouse heart at 20 mg/kg, po after 1 hr; type: ADME, organism-based; design: dose 20 mg/kg, route oral; details: read-out: Drug uptake
[11] = target: Vascular endothelial growth factor receptor 3 (Homo sapiens, UniProt P35916); experiment: Inhibition of human VEGFR3
[12] = Drug level in Swiss SPF (CD1) mouse liver at 20 mg/kg, po after 2 hrs; type: ADME, organism-based; design: dose 20 mg/kg, route oral; details: read-out: Drug uptake
[13] = Half life in Swiss SPF (CD1) mouse liver at 20 mg/kg, po after 2 to 8 hrs; type: ADME, organism-based; design: dose 20 mg/kg, route oral
[14] = Drug level in Swiss SPF (CD1) mouse heart at 20 mg/kg, po after 2 hrs; type: ADME, organism-based; design: dose 20 mg/kg, route oral; details: read-out: Drug uptake
[15] = Tmax in Swiss SPF (CD1) mouse liver at 20 mg/kg, po; type: ADME, organism-based; design: dose 20 mg/kg, route oral
[16] = Drug level in Swiss SPF (CD1) mouse plasma at 20 mg/kg, po after 8 hrs; type: ADME, organism-based; design: dose 20 mg/kg, route oral
[17] = test system: Hepatitis C virus; experiment: Antiviral activity against HCV in Huh7-Rep cells by luciferase assay; type: functional, organism-based, Hepacivirus hominis
[18] = test system: Bovine viral diarrhea virus 1; experiment: Antiviral activity against BVDV upto 100 uM; type: functional, organism-based
[19] = AUC (0 to infinity) in Swiss SPF (CD1) mouse liver at 20 mg/kg, po; type: ADME, organism-based; design: time infinity, dose 20 mg/kg, route oral
[20] = Tmax in Swiss SPF (CD1) mouse plasma at 20 mg/kg, po; type: ADME, organism-based; design: dose 20 mg/kg, route oral
[21] = Cmax in Swiss SPF (CD1) mouse liver at 20 mg/kg, po; type: ADME, organism-based; design: dose 20 mg/kg, route oral
[22] = Drug level in Swiss SPF (CD1) mouse heart at 20 mg/kg, po after 24 hrs; type: ADME, organism-based; design: dose 20 mg/kg, route oral; details: read-out: Drug uptake
[23] = Tmax in Swiss SPF (CD1) mouse heart at 20 mg/kg, po; type: ADME, organism-based; design: dose 20 mg/kg, route oral
[24] = Drug level in Swiss SPF (CD1) mouse plasma at 20 mg/kg, po after 1 hr; type: ADME, organism-based; design: dose 20 mg/kg, route oral
[25] = Cytotoxicity against Huh7 cells by luciferase assay; type: cell-based, Huh-7; details: human
[26] = Drug level in Swiss SPF (CD1) mouse plasma at 20 mg/kg, po after 24 hrs; type: ADME, organism-based; design: dose 20 mg/kg, route oral
[27] = AUC (0 to 8 hrs) in Swiss SPF (CD1) mouse heart at 20 mg/kg, po; type: ADME, organism-based; design: time < 8 hr, dose 20 mg/kg, route oral
[28] = Drug level in Swiss SPF (CD1) mouse plasma at 20 mg/kg, po after 0.5 hrs; type: ADME, organism-based; design: dose 20 mg/kg, route oral
[29] = target: Vascular endothelial growth factor receptor 2 (Homo sapiens, UniProt P35968); experiment: Inhibition of human VEGFR2
[30] = test system: Hepatitis C virus; experiment: Antiviral activity against HCV subgenomic 1a replicon upto 32 uM; type: functional, organism-based; details: Hepacivirus hominis; subtype 1a
[31] = Half life in Swiss SPF (CD1) mouse plasma at 20 mg/kg, po after 2 to 8 hrs; type: ADME, organism-based; design: dose 20 mg/kg, route oral
[32] = Drug level in Swiss SPF (CD1) mouse liver at 20 mg/kg, po after 1 hr; type: ADME, organism-based; design: dose 20 mg/kg, route oral; details: read-out: Drug uptake
[33] = Drug level in Swiss SPF (CD1) mouse plasma at 20 mg/kg, po after 4 hrs; type: ADME, organism-based; design: dose 20 mg/kg, route oral
[34] = Drug level in Swiss SPF (CD1) mouse heart at 20 mg/kg, po after 4 hrs; type: ADME, organism-based; design: dose 20 mg/kg, route oral; details: read-out: Drug uptake
[35] = Drug level in Swiss SPF (CD1) mouse heart at 20 mg/kg, po after 0.5 hrs; type: ADME, organism-based; design: dose 20 mg/kg, route oral; details: read-out: Drug uptake
[36] = Half life in Swiss SPF (CD1) mouse heart at 20 mg/kg, po after 2 to 8 hrs; type: ADME, organism-based; design: dose 20 mg/kg, route oral
[37] = target: Mitogen-activated protein kinase 9 (Homo sapiens, UniProt P45984); experiment: Inhibition of human JNK2
[38] = Drug level in Swiss SPF (CD1) mouse heart at 20 mg/kg, po after 8 hrs; type: ADME, organism-based; design: dose 20 mg/kg, route oral; details: read-out: Drug uptake
[39] = Drug level in Swiss SPF (CD1) mouse plasma at 20 mg/kg, po after 2 hrs; type: ADME, organism-based; design: dose 20 mg/kg, route oral
[40] = Cmax in Swiss SPF (CD1) mouse plasma at 20 mg/kg, po; type: ADME, organism-based; design: dose 20 mg/kg, route oral
[41] = Inhibition of HCV NS5B polymerase; design: species or system Hepacivirus hominis
[42] = target: Vascular endothelial growth factor receptor 1 (Homo sapiens, UniProt P17948); experiment: Inhibition of human VEGFR1
[43] = Cytotoxicity against MT4 cells by luciferase assay; type: cell-based; details: human
[44] = test system: Hepatitis C virus; experiment: Antiviral activity against HCV subgenomic 1b replicon upto 32 uM; type: functional, organism-based; details: Hepacivirus hominis; genotype 1b
[45] = target: Mitogen-activated protein kinase 8 (Homo sapiens, UniProt P45983); experiment: Inhibition of JNK1
[46] = Drug level in Swiss SPF (CD1) mouse liver at 20 mg/kg, po after 0.5 hrs; type: ADME, organism-based; design: dose 20 mg/kg, route oral; details: read-out: Drug uptake
[47] = target: Mitogen-activated protein kinase 10 (Homo sapiens, UniProt P53779); experiment: Inhibition of human JNK3
[48] = AUC (0 to infinity) in Swiss SPF (CD1) mouse heart at 20 mg/kg, po; type: ADME, organism-based; design: time infinity, dose 20 mg/kg, route oral

Chain of Mitogen-activated protein kinase 8 (P45983 whole entry): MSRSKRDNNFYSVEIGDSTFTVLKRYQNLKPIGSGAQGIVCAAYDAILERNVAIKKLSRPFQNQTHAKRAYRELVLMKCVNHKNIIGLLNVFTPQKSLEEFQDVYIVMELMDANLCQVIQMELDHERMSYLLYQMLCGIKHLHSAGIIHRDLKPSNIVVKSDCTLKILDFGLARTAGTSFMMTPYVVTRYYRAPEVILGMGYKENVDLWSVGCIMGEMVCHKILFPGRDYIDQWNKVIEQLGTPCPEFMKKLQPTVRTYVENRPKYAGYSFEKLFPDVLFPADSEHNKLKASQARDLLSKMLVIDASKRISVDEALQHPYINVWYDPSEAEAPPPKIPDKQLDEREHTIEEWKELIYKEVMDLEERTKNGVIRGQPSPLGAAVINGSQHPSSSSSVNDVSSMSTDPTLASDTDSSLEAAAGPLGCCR
Chain of Vascular endothelial growth factor receptor 1 (P17948 whole entry): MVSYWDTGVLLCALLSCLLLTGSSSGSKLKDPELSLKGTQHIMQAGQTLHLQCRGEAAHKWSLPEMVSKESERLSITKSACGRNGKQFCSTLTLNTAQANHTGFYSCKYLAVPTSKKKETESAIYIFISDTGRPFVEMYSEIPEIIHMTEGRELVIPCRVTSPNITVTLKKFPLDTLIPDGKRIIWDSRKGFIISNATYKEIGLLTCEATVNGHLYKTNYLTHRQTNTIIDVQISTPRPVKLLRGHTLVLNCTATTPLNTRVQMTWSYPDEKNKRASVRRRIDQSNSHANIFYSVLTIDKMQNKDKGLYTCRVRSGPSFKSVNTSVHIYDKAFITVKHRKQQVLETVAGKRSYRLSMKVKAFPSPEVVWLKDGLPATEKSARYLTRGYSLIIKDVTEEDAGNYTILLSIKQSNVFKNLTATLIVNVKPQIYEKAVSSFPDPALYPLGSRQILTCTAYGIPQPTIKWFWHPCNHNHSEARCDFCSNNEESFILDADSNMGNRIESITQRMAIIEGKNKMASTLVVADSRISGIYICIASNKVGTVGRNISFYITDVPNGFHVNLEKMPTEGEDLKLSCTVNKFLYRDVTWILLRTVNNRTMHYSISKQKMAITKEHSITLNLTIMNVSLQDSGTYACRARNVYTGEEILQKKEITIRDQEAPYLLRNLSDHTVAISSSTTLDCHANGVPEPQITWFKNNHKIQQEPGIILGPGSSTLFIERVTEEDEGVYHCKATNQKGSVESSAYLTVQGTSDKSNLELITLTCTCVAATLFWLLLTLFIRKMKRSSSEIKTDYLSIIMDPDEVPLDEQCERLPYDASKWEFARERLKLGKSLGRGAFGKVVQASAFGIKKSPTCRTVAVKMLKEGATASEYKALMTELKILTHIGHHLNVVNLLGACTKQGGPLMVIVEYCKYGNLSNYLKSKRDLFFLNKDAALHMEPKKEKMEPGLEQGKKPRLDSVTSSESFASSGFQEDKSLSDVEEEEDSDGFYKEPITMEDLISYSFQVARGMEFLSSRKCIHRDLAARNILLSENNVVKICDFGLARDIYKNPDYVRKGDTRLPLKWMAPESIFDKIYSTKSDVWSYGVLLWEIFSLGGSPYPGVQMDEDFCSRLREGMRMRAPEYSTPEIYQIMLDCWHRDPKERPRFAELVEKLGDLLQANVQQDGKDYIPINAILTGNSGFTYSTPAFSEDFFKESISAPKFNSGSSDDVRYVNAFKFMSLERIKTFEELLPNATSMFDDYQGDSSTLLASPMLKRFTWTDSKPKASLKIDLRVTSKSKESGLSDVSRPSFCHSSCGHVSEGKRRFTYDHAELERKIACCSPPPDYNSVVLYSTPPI
Chain of Mitogen-activated protein kinase 10 (P53779 whole entry): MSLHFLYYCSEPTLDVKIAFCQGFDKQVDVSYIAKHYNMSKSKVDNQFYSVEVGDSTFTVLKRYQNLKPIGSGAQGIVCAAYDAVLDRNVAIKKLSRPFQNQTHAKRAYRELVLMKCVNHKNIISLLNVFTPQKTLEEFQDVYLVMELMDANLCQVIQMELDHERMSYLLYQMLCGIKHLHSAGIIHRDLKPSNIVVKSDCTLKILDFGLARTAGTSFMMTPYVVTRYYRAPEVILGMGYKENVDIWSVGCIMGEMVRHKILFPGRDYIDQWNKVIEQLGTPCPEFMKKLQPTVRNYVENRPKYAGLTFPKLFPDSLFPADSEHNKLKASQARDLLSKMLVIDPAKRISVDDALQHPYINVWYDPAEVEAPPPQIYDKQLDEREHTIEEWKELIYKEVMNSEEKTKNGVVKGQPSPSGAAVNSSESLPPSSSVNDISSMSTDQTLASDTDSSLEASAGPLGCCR
Chain of Vascular endothelial growth factor receptor 3 (P35916 whole entry): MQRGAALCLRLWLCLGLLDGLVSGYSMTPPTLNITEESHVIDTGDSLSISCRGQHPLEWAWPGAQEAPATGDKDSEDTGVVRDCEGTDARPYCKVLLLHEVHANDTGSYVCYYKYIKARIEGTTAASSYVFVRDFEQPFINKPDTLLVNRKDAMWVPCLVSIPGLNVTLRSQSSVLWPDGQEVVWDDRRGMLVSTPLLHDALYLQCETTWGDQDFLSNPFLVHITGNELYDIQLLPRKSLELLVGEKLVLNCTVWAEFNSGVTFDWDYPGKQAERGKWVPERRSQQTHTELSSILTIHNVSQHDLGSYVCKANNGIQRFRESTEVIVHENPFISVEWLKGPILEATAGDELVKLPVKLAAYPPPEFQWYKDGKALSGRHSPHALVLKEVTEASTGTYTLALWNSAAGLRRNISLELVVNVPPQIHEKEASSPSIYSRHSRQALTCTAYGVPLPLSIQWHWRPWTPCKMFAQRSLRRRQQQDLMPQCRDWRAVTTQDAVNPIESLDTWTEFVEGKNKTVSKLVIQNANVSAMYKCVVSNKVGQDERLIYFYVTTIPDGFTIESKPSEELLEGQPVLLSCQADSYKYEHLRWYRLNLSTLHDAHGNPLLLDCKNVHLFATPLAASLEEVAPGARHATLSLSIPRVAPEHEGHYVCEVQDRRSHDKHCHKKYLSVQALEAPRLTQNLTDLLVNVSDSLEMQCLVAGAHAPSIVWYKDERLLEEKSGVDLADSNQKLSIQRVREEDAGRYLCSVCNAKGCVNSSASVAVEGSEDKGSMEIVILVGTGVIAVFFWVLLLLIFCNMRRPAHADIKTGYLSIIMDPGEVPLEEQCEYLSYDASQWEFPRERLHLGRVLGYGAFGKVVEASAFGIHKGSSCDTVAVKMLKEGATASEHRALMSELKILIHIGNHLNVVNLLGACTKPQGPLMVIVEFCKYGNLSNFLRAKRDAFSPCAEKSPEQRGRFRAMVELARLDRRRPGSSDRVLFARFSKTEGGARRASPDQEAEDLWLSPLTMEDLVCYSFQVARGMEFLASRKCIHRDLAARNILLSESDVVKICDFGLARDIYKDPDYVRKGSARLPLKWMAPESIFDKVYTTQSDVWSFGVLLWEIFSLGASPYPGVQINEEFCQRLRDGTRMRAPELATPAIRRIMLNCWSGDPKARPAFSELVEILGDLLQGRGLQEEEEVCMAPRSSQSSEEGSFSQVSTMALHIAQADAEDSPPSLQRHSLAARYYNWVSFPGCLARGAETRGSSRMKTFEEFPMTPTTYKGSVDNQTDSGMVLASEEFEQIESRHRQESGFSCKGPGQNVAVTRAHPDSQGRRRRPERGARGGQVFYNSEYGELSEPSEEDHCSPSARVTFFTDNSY
Chain of Mitogen-activated protein kinase 9 (P45984 whole entry): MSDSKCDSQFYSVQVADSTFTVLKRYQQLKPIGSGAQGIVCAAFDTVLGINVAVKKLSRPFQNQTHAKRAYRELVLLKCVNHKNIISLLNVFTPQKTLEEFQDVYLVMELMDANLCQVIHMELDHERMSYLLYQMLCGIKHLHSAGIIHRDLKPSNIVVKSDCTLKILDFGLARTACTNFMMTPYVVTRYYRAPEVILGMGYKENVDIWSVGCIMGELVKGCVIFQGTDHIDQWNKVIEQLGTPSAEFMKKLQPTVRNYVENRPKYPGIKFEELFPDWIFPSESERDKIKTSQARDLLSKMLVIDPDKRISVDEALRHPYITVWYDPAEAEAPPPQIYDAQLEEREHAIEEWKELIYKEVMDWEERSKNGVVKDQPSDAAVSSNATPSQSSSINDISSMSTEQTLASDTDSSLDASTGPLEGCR

O=C(NCCCN1CCCC1=O)c1cnccc1Nc1nc(-c2cc(Br)ccc2F)nc2nccnc12
pIC50 [1]: < 4.52 | concentration at 4 h [2]: 627 ng/mL | AUC(0-inf) [3]: 332 ng·h/mL | concentration at 8 h [4]: 201 ng/mL | pIC50 [5]: 8.49 | AUC(0-t) at 8 h [6]: 309 ng·h/mL | Cmax [7]: 678 ng/mL | Activity [8]: Active | AUC(0-t) at 8 h [9]: 6960 ng·h/mL | concentration at 1 h [10]: 557 ng/mL | pIC50 [11]: 6.91 | concentration at 2 h [12]: 611 ng/mL | half-life [13]: 3.5 h | concentration at 2 h [14]: 92.9 ng/mL | Tmax [15]: 0.5 h | concentration at 8 h [16]: 5.52 ng/mL | pEC50 [17]: 7.19 | Activity [18]: inactive | AUC(0-inf) [19]: 7970 ng·h/mL | Tmax [20]: 0.5 h | Cmax [21]: 4060 ng/mL | concentration at 24 h [22]: 5 ng/mL | Tmax [23]: 0.5 h | concentration at 1 h [24]: 166 ng/mL | CC50 [25]: > 32000 nM | concentration at 24 h [26]: < 0.5 ng/mL | AUC(0-t) at 8 h [27]: 1120 ng·h/mL | concentration at 0.5 h [28]: 220 ng/mL | pIC50 [29]: 6.85 | Activity [30]: inactive | half-life [31]: 2.9 h | concentration at 1 h [32]: 2940 ng/mL | concentration at 4 h [33]: 20.3 ng/mL | concentration at 4 h [34]: 83.6 ng/mL | concentration at 0.5 h [35]: 678 ng/mL | half-life [36]: 3.4 h | pIC50 [37]: 7.43 | concentration at 8 h [38]: 29.1 ng/mL | concentration at 2 h [39]: 21.7 ng/mL | Cmax [40]: 220 ng/mL | pIC50 [41]: < 4.52 | pIC50 [42]: 7.33 | CC50 [43]: > 32000 nM | Activity [44]: inactive | pIC50 [45]: 4.98 | concentration at 0.5 h [46]: 4060 ng/mL | pIC50 [47]: 7.23 | AUC(0-inf) [48]: 1260 ng·h/mL
